Laboratory results: patent publication US8957238B2, “Process for preparing malathion for pharmaceutical use” (priority 2005, dated 2015)

Test: Storage stability of dry pharmaceutical grade malathion, HPLC (Example 18)
Assay type: physicochemical
Procedure: Purity was determined using a high performance liquid chromatography (HPLC) instrument with a variable wavelength detector.
Isomalathion content was determined using a high performance liquid chromatography (HPLC) instrument with a variable wavelength detector.
Four (4) samples of Dry Pharmaceutical Grade Malathion from Example 16, each weighing about 3-3.5 grams, were placed in separate clear glass bottles closed by a cap coated with polytetrafluoroethylene (PTFE). Each bottle was then inserted into a separate black polyethylene (PE) bag, which was tightly closed with a strip fastener. Each bag was then placed in a separate carton box.
The four (4) samples were stored for three (3) months under the following conditions: • Sample One: 40° C.±2° C. and 75%±5% relative humidity, • Sample Two: 30° C.±2° C. and 60%±5% relative humidity, • Sample Three: 25° C.±2° C. and 60%±5% relative humidity, and • Sample Four: 5° C.±3° C. and ambient relative humidity
The purity of each sample was determined after storage for one (1), two (2), and three (3) months using HPLC as set forth above (See Methodology and Protocols: End-of-Process Determination of Assay, Purity, and Impurities Other Than Isomalathion, End-of-Process Determination of Isomalathion).

[1] = Storage at 5° C. ± 3° C. and ambient relative humidity
[2] = Storage at 25° C. ± 2° C. and 60% ± 5% relative humidity
[3] = Storage at 30° C. ± 2° C. and 60% ± 5% relative humidity
[4] = Storage at 40° C. ± 2° C. and 75% ± 5% relative humidity

Q: Which results are given for `CCOC(=O)CC(SP(=S)(OC)OC)C(=O)OCC` (stereo not shown) [[(dimethoxyphosphinothioyl)thio]butanedioic acid diethyl ester]?
A: Diethyl fumarate Quantity After 1 Month [1]: <0.01 (LOD) % w/w; Diethyl fumarate Quantity After 2 Months [1]: <0.01 (LOD) % w/w; Diethyl fumarate Quantity After 3 Months [1]: <0.01 (LOD) % w/w; Dimethyl malathion Quantity After 1 Month [1]: <0.02 (LOD) % w/w; Dimethyl malathion Quantity After 2 Months [1]: <0.02 (LOD) % w/w; Dimethyl malathion Quantity After 3 Months [1]: <0.02 (LOD) % w/w; Isomalathion Quantity After 1 Month [1]: <0.02 (LOD) % w/w; Isomalathion Quantity After 2 Months [1]: <0.03 (LOQ) % w/w; Isomalathion Quantity After 3 Months [1]: <0.03 (LOQ) % w/w; Malaoxon Quantity After 1 Month [1]: <0.05 (LOD) % w/w; Malaoxon Quantity After 2 Months [1]: <0.05 (LOD) % w/w; Malaoxon Quantity After 3 Months [1]: <0.05 (LOD) % w/w; MeOOSPO Quantity After 1 Month [1]: <0.04 (LOD) % w/w; MeOOSPO Quantity After 2 Months [1]: <0.04 (LOD) % w/w; MeOOSPO Quantity After 3 Months [1]: <0.04 (LOD) % w/w; MeOOSPS Quantity After 1 Month [1]: 0.1 % w/w; MeOOSPS Quantity After 2 Months [1]: 0.1 % w/w; MeOOSPS Quantity After 3 Months [1]: 0.1 % w/w; MeOSSPO Quantity After 1 Month [1]: <0.02 (LOD) % w/w; MeOSSPO Quantity After 2 Months [1]: <0.02 (LOD) % w/w; MeOSSPO Quantity After 3 Months [1]: <0.02 (LOD) % w/w; Methyl malathion Quantity After 1 Month [1]: 0.05 % w/w; Methyl malathion Quantity After 2 Months [1]: 0.06 % w/w; Methyl malathion Quantity After 3 Months [1]: 0.06 % w/w; O,O-Me, Et Malathion analog Quantity After 1 Month [1]: 0.07 % w/w; O,O-Me, Et Malathion analog Quantity After 2 Months [1]: 0.07 % w/w; O,O-Me, Et Malathion analog Quantity After 3 Months [1]: 0.07 % w/w; Tetraethyl dithiodisuccinate Quantity After 1 Month [1]: 0.06 % w/w; Tetraethyl dithiodisuccinate Quantity After 2 Months [1]: 0.06 % w/w; Tetraethyl dithiodisuccinate Quantity After 3 Months [1]: 0.06 % w/w; Unknown (RRT = 0.38) Quantity After 1 Month [1]: 0.04 % w/w; Unknown (RRT = 0.38) Quantity After 2 Months [1]: 0.04 % w/w; Unknown (RRT = 0.38) Quantity After 3 Months [1]: 0.04 % w/w; Diethyl fumarate Quantity After 1 Month [2]: <0.01 (LOD) % w/w; Diethyl fumarate Quantity After 2 Months [2]: <0.01 (LOD) % w/w; Diethyl fumarate Quantity After 3 Months [2]: <0.01 (LOD) % w/w; Dimethyl malathion Quantity After 1 Month [2]: <0.02 (LOD) % w/w; Dimethyl malathion Quantity After 2 Months [2]: <0.02 (LOD) % w/w; Dimethyl malathion Quantity After 3 Months [2]: <0.02 (LOD) % w/w; Isomalathion Quantity After 1 Month [2]: <0.03 (LOQ) % w/w; Isomalathion Quantity After 2 Months [2]: <0.02 (LOD) % w/w; Isomalathion Quantity After 3 Months [2]: 0.04 % w/w; Malaoxon Quantity After 1 Month [2]: <0.05 (LOD) % w/w; Malaoxon Quantity After 2 Months [2]: <0.05 (LOD) % w/w; Malaoxon Quantity After 3 Months [2]: <0.05 (LOD) % w/w; MeOOSPO Quantity After 1 Month [2]: <0.04 (LOD) % w/w; MeOOSPO Quantity After 2 Months [2]: <0.04 (LOD) % w/w; MeOOSPO Quantity After 3 Months [2]: <0.04 (LOD) % w/w; MeOOSPS Quantity After 1 Month [2]: 0.1 % w/w; MeOOSPS Quantity After 2 Months [2]: 0.1 % w/w; MeOOSPS Quantity After 3 Months [2]: 0.1 % w/w; MeOSSPO Quantity After 1 Month [2]: <0.02 (LOD) % w/w; MeOSSPO Quantity After 2 Months [2]: <0.02 (LOD) % w/w; MeOSSPO Quantity After 3 Months [2]: <0.02 (LOD) % w/w; Methyl malathion Quantity After 1 Month [2]: 0.05 % w/w; Methyl malathion Quantity After 2 Months [2]: 0.05 % w/w; Methyl malathion Quantity After 3 Months [2]: 0.06 % w/w; O,O-Me, Et Malathion analog Quantity After 1 Month [2]: 0.08 % w/w; O,O-Me, Et Malathion analog Quantity After 2 Months [2]: 0.07 % w/w; O,O-Me, Et Malathion analog Quantity After 3 Months [2]: 0.07 % w/w; Tetraethyl dithiodisuccinate Quantity After 1 Month [2]: 0.06 % w/w; Tetraethyl dithiodisuccinate Quantity After 2 Months [2]: 0.06 % w/w; Tetraethyl dithiodisuccinate Quantity After 3 Months [2]: 0.06 % w/w; Unknown (RRT = 0.27) Quantity After 1 Month [2]: <0.02 (LOD) % w/w; Unknown (RRT = 0.27) Quantity After 2 Months [2]: <0.02 (LOD) % w/w; Unknown (RRT = 0.27) Quantity After 3 Months [2]: 0.06 % w/w; Unknown (RRT = 0.38) Quantity After 1 Month [2]: 0.04 % w/w; Unknown (RRT = 0.38) Quantity After 2 Months [2]: 0.04 % w/w; Unknown (RRT = 0.38) Quantity After 3 Months [2]: 0.04 % w/w; Diethyl fumarate Quantity After 1 Month [3]: <0.01 (LOD) % w/w; Diethyl fumarate Quantity After 2 Months [3]: <0.01 (LOD) % w/w; Diethyl fumarate Quantity After 3 Months [3]: <0.01 (LOD) % w/w; Dimethyl malathion Quantity After 1 Month [3]: <0.02 (LOD) % w/w; Dimethyl malathion Quantity After 2 Months [3]: <0.02 (LOD) % w/w; Dimethyl malathion Quantity After 3 Months [3]: <0.02 (LOD) % w/w; Isomalathion Quantity After 1 Month [3]: 0.03 % w/w; Isomalathion Quantity After 2 Months [3]: 0.04 % w/w; Isomalathion Quantity After 3 Months [3]: 0.06 % w/w; Malaoxon Quantity After 1 Month [3]: <0.05 (LOD) % w/w; Malaoxon Quantity After 2 Months [3]: <0.05 (LOD) % w/w; Malaoxon Quantity After 3 Months [3]: <0.05 (LOD) % w/w; MeOOSPO Quantity After 1 Month [3]: <0.04 (LOD) % w/w; MeOOSPO Quantity After 2 Months [3]: <0.04 (LOD) % w/w; MeOOSPO Quantity After 3 Months [3]: <0.04 (LOD) % w/w; MeOOSPS Quantity After 1 Month [3]: 0.1 % w/w; MeOOSPS Quantity After 2 Months [3]: 0.1 % w/w; MeOOSPS Quantity After 3 Months [3]: 0.1 % w/w; MeOSSPO Quantity After 1 Month [3]: <0.02 (LOD) % w/w; MeOSSPO Quantity After 2 Months [3]: <0.02 (LOD) % w/w; MeOSSPO Quantity After 3 Months [3]: <0.02 (LOD) % w/w; Methyl malathion Quantity After 1 Month [3]: 0.05 % w/w; Methyl malathion Quantity After 2 Months [3]: 0.06 % w/w; Methyl malathion Quantity After 3 Months [3]: 0.06 % w/w; O,O-Me, Et Malathion analog Quantity After 1 Month [3]: 0.08 % w/w; O,O-Me, Et Malathion analog Quantity After 2 Months [3]: 0.08 % w/w; O,O-Me, Et Malathion analog Quantity After 3 Months [3]: 0.07 % w/w; Tetraethyl dithiodisuccinate Quantity After 1 Month [3]: 0.06 % w/w; Tetraethyl dithiodisuccinate Quantity After 2 Months [3]: 0.05 % w/w; Tetraethyl dithiodisuccinate Quantity After 3 Months [3]: 0.06 % w/w; Unknown (RRT = 0.06) Quantity After 1 Month [3]: <0.02 (LOD) % w/w; Unknown (RRT = 0.06) Quantity After 2 Months [3]: <0.02 (LOD) % w/w; Unknown (RRT = 0.06) Quantity After 3 Months [3]: 0.04 % w/w; Unknown (RRT = 0.27) Quantity After 1 Month [3]: <0.02 (LOD) % w/w; Unknown (RRT = 0.27) Quantity After 2 Months [3]: 0.07 % w/w; Unknown (RRT = 0.27) Quantity After 3 Months [3]: 0.15 % w/w; Unknown (RRT = 0.38) Quantity After 1 Month [3]: 0.04 % w/w; Unknown (RRT = 0.38) Quantity After 2 Months [3]: 0.04 % w/w; Unknown (RRT = 0.38) Quantity After 3 Months [3]: 0.04 % w/w; Diethyl fumarate Quantity After 1 Month [4]: <0.01 (LOD) % w/w; Diethyl fumarate Quantity After 2 Months [4]: <0.01 (LOD) % w/w; Diethyl fumarate Quantity After 3 Months [4]: <0.02 (LOQ) % w/w; Dimethyl malathion Quantity After 1 Month [4]: <0.02 (LOD) % w/w; Dimethyl malathion Quantity After 2 Months [4]: <0.02 (LOD) % w/w; Dimethyl malathion Quantity After 3 Months [4]: <0.02 (LOD) % w/w; Isomalathion Quantity After 1 Month [4]: 0.06 % w/w; Isomalathion Quantity After 2 Months [4]: 0.1 % w/w; Isomalathion Quantity After 3 Months [4]: 0.1 % w/w; Malaoxon Quantity After 1 Month [4]: <0.05 (LOD) % w/w; Malaoxon Quantity After 2 Months [4]: <0.05 (LOD) % w/w; Malaoxon Quantity After 3 Months [4]: <0.05 (LOD) % w/w; MeOOSPO Quantity After 1 Month [4]: <0.04 (LOD) % w/w; MeOOSPO Quantity After 2 Months [4]: <0.04 (LOD) % w/w; MeOOSPO Quantity After 3 Months [4]: 0.05 % w/w; MeOOSPS Quantity After 1 Month [4]: 0.1 % w/w; MeOOSPS Quantity After 2 Months [4]: 0.2 % w/w; MeOOSPS Quantity After 3 Months [4]: 0.2 % w/w; MeOSSPO Quantity After 1 Month [4]: <0.02 (LOD) % w/w; MeOSSPO Quantity After 2 Months [4]: <0.02 (LOD) % w/w; MeOSSPO Quantity After 3 Months [4]: <0.02 (LOD) % w/w; Methyl malathion Quantity After 1 Month [4]: 0.06 % w/w; Methyl malathion Quantity After 2 Months [4]: 0.06 % w/w; Methyl malathion Quantity After 3 Months [4]: 0.06 % w/w; O,O-Me, Et Malathion analog Quantity After 1 Month [4]: 0.08 % w/w; O,O-Me, Et Malathion analog Quantity After 2 Months [4]: 0.07 % w/w; O,O-Me, Et Malathion analog Quantity After 3 Months [4]: 0.07 % w/w; Tetraethyl dithiodisuccinate Quantity After 1 Month [4]: 0.06 % w/w; Tetraethyl dithiodisuccinate Quantity After 2 Months [4]: 0.05 % w/w; Tetraethyl dithiodisuccinate Quantity After 3 Months [4]: 0.07 % w/w; Unknown (RRT = 0.06) Quantity After 1 Month [4]: <0.02 (LOD) % w/w; Unknown (RRT = 0.06) Quantity After 2 Months [4]: <0.02 (LOD) % w/w; Unknown (RRT = 0.06) Quantity After 3 Months [4]: 0.04 % w/w; Unknown (RRT = 0.25) Quantity After 1 Month [4]: <0.02 (LOD) % w/w; Unknown (RRT = 0.25) Quantity After 2 Months [4]: 0.06 % w/w; Unknown (RRT = 0.25) Quantity After 3 Months [4]: 0.12 % w/w; Unknown (RRT = 0.27) Quantity After 1 Month [4]: 0.10 % w/w; Unknown (RRT = 0.27) Quantity After 2 Months [4]: 0.38 % w/w; Unknown (RRT = 0.27) Quantity After 3 Months [4]: 0.76 % w/w; Unknown (RRT = 0.38) Quantity After 1 Month [4]: 0.04 % w/w; Unknown (RRT = 0.38) Quantity After 2 Months [4]: 0.04 % w/w; Unknown (RRT = 0.38) Quantity After 3 Months [4]: 0.04 % w/w; Storage stability (conclusion in words) (three (3) months at 5, 25, 30 and 40° C. conditions): storage stable
